Experimental data as given in ChEMBL document CHEMBL4028877, “Targets for Drug Therapy for Autism Spectrum Disorder: Challenges and Future Directions” (J Med Chem, 2017).
pEC50, pKi: −log10 of the molar value.

Experiments:
[1] = biological target: Glutamate receptor ionotropic, NMDA 2A (Rattus norvegicus) (UniProt Q00959); test: Antagonist activity at GluN2A in CA1 region of Sprague-Dawley rat hippocampal slices assessed as inhibition of schaffer collateral input-stimulated field excitatory postsynaptic potential at 30 to 50 uM after 40 mins by electrophysiology assay
[2] = biological target: Glutamate receptor ionotropic, NMDA 2A (Rattus norvegicus) (UniProt Q00959); test: Antagonist activity at GluN2A in rat primary pyramidal neurons assessed as inhibition of NMDA/glycine-induced current amplitude at 10 uM at holding potential of -70 mV by patch-clamp electrophysiology assay
Oxytocin receptor [3] = biological target: T1, Oxytocin receptor (Mus musculus, UniProt P97926); test: Displacement of [Tyrosyl-2,6-3H]Oxytocin from recombinant mouse OTR expressed in CHO-K1 cells after 180 mins by liquid scintillation counting method; type: cell-based
T1 sequence (P97926 whole entry): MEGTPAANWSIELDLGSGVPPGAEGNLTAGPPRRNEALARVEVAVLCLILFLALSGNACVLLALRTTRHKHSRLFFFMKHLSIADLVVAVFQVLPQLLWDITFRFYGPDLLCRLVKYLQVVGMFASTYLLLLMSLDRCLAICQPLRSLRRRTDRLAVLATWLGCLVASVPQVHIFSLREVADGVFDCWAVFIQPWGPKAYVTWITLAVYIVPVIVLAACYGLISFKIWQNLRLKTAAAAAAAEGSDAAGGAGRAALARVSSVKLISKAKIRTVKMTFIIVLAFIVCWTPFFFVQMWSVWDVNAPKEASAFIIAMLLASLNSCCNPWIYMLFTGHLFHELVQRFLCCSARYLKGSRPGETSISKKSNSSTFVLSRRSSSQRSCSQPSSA

Oxytocin receptor [4] = biological target: T1, Oxytocin receptor; test: Agonist activity at recombinant mouse OTR expressed in CHO-K1 cells assessed as induction of Ca2+ mobilization after overnight incubation by FLIPR assay; type: functional, cell-based

Glutamate receptor ionotropic, NMDA 2A (Rattus norvegicus), sequence (Q00959 23-1464 limits assumed): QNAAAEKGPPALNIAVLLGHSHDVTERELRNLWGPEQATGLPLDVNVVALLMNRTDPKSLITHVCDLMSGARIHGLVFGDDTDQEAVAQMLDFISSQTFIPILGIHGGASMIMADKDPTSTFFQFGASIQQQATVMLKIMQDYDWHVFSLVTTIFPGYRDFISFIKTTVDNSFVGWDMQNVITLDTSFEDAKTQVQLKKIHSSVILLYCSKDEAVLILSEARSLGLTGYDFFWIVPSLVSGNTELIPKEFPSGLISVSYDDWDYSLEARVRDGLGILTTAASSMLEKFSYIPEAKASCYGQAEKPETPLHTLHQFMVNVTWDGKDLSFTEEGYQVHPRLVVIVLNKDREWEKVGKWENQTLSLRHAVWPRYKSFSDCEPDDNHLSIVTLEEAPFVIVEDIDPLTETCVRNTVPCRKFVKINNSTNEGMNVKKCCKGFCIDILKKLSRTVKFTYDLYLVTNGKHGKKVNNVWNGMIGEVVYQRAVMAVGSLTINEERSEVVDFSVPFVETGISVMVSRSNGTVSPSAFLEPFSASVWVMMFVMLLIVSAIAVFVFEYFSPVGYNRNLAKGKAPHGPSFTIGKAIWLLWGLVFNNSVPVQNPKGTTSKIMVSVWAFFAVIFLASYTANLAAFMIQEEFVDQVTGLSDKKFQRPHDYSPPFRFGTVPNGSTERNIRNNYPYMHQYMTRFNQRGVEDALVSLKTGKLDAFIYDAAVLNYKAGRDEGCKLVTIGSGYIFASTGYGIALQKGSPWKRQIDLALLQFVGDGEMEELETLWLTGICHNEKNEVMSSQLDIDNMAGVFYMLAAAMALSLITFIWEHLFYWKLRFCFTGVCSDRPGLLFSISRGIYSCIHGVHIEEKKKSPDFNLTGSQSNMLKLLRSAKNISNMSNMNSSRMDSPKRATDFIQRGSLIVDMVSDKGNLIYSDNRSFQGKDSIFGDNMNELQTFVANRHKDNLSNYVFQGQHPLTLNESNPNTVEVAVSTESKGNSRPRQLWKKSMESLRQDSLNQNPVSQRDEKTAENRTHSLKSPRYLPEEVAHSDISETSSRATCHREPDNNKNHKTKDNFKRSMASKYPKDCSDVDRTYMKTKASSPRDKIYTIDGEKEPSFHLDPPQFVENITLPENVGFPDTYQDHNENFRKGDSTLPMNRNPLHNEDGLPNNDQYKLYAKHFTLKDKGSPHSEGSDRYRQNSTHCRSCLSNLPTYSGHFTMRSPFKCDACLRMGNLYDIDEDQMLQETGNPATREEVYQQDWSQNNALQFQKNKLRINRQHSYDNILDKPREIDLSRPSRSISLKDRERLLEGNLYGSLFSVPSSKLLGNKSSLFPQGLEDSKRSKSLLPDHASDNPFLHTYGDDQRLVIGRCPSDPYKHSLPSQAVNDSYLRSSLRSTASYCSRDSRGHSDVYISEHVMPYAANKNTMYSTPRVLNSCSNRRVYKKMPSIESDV

| inhibition [1] [%] | inhibition [2] [%] | pKi (Oxytocin receptor [3]) | pEC50 (Oxytocin receptor [4]) | Compound |
| --- | --- | --- | --- | --- |
| 60 | 30 | – | – | Cc1ncc(CNC(=O)c2cnc(CNS(=O)(=O)c3ccc(F)c(Cl)c3)cn2)s1 |
| 60 | 30 | – | – | Cc1ncc(CNC(=O)c2cnc(CNS(=O)(=O)c3ccc(F)c(F)c3)c(C)n2)s1 |
| – | – | 7.29 | 7.54 | Cc1cc(C(=O)N2Cc3cnn(C)c3Nc3ccccc32)ccc1CNC(=O)N1CCN(Cc2cc(O)cc(O)c2)CC1 |
